Reference: patent US9422290B2, “Triazolopyridazine” (Boehringer Ingelheim International GmbH, priority 2012, dated 2016)

Biological target: BRD4-BD1 (Homo sapiens (Human), UniProt O60885)
Assay: BRD4-H4 tetraacetylated peptide inhibition AlphaScreen
Assay type: binding
Settings: 15 nM GST-BRD4-BD1 (aa 44-168), 15 nM biotinylated Acetyl-Histone H4 (Lys5, 8, 12, 16) peptide
Method: Compounds are diluted in serial dilution 1:5 in assay buffer from 10 mM stock in DMSO (100 μM start concentration) in white OptiPlate-384 (PerkinElmer). […] Subsequently, 6 μl of premixed AlphaLISA Glutathione Acceptor Beads and AlphaScreen Streptavidin Donor Beads from PerkinElmer (in assay buffer at a concentration of 10 μg/ml each) are added and the samples are incubated for 30 min at RT in the dark (shaking 300 rpm). Afterwards, the signal is measured in a PerkinElmer Envision HTS Multilabel Reader using the AlphaScreen protocol from PerkinElmer. […] Negative control values are entered as low basis value when using the software GraphPad Prism for calculations. Furthermore, a positive control (probe molecule JQ1+ with protein/peptide mix) is pipetted. Determination of IC50 values are carried out using GraphPad Prism 3.03 software (or updates thereof).

SMILES | IC50
Cc1nnc2c(NC3CCN(C)CC3)cc(N(C)Cc3ccccc3)nn12 [Example I-1, N6-Benzyl-3,N6-dimethyl-N8-(1-methyl-piperidin-4-yl)-[1,2,4]triazolo[4,3-b]pyridazine-6,8-diamine] | 3 nM
Cc1nnc2c(NC3CCOCC3)cc(N(C)Cc3ccccc3)nn12 [Example I-2] | 83 nM
Cc1nnc2c(N[C@H]3CCOC3)cc(N(C)Cc3ccccc3)nn12 [Example I-3] | 67 nM
Cc1nnc2c(N[C@@H]3CCOC3)cc(N(C)Cc3ccccc3)nn12 [Example I-4] | 25 nM
CNc1cc(N(C)Cc2ccccc2)nn2c(C)nnc12 [Example I-5] | 83 nM
CNc1cc(N(C)Cc2ccc(F)cc2)nn2c(C)nnc12 [Example I-6] | 74 nM
Cc1nnc2c(NC3CCN(C)CC3)cc(-c3cnn(C)c3Cc3ccccc3)nn12 [II-1, [6-(5-Benzyl-1-methyl-1H-pyrazol-4-yl)-3-methyl-[1,2,4]triazolo[4,3-b]pyridazin-8-yl]-(1-methyl-piperidin-4-yl)-amine] | 10 nM
Cc1nnc2c(NC3CCN(C)CC3)cc(-c3ccnn3Cc3ccccc3)nn12 [II-2] | 117 nM
Cc1nnc2c(NC3CCN(C)CC3)cc(-c3[nH]c4ccccc4c3Cc3ccccc3)nn12 [II-3] | 3 nM
Cc1nnc2c(NC3CCN(C)CC3)cc(-c3c(Cc4ccccc4)c4ccccc4n3C)nn12 [II-4] | 37 nM
Cc1nnc2c(NC3CCN(C)CC3)cc(-c3cc4ccccc4n3Cc3ccccc3)nn12 [II-5, [6-(1-Benzyl-1H-indol-2-yl)-3-methyl-[1,2,4]triazolo[4,3-b]pyridazin-8-yl]-(1-methyl-piperidin-4-yl)-amine] | 105 nM
COCCN1CCC(Nc2cc(-c3cnn(C)c3Oc3ccccc3)nn3c(C)nnc23)CC1 [II-6] | 8 nM
Cc1nnc2c(NC3CCN(C)CC3)cc(-c3cnn(C)c3Oc3ccccc3)nn12 [II-7] | 8 nM
COCCN1CCC(Nc2cc(-c3cn(C)nc3Cc3ccccc3)nn3c(C)nnc23)CC1 [II-8] | 4 nM
Cc1nnc2c(NC3CCN(C)CC3)cc(-c3cn(C)nc3Cc3ccccc3)nn12 [II-9] | 3 nM
CNc1cc(-c2cn(C)nc2Cc2ccccc2)nn2c(C)nnc12 [II-10] | 38 nM
Cc1cc(-c2cn(C)nc2Cc2ccccc2)nn2c(C)nnc12 [II-11] | 64 nM
Cc1nnc2c(Cl)cc(-c3cn(C)nc3Cc3ccccc3)nn12 [II-12, 3-benzyl-4-{8-chloro-3-methyl-[1,2,4]triazolo[4,3-b]pyridazin-6-yl}-1-methyl-1H-pyrazole] | 51 nM
CSc1cc(-c2cn(C)nc2Cc2ccccc2)nn2c(C)nnc12 [II-13] | 2000 nM

SMILES | IC50
CNc1cc(-c2cnn(C)c2Oc2ccccc2)nn2c(C)nnc12 [II-14] | 26 nM
CNc1cc(-c2cn(C)nc2Oc2ccccc2)nn2c(C)nnc12 [II-15] | 29 nM
Cc1nnc2c(NC(C)C)cc(-c3cn(C(C)C)nc3Cc3ccccc3)nn12 [II-16] | 711 nM
Cc1nnc2c(NC(C)C)cc(-c3cnn(C)c3Oc3ccccc3)nn12 [II-17] | 140 nM
Cc1nnc2c(NC(C)C)cc(-c3cn(C)nc3Oc3ccccc3)nn12 [II-18] | 31 nM
Cc1nnc2c(NC(C)C)cc(-c3cn(C)nc3Cc3ccccc3)nn12 [II-19] | 105 nM
Cc1nnc2c(NC(C)C)cc(-c3cn(C)nc3Oc3ccccn3)nn12 [II-20] | 43 nM
CNc1cc(-c2cn(C)nc2Oc2ccccn2)nn2c(C)nnc12 [II-21] | 72 nM
CC(=O)N1CCC(Nc2cc(N(C)Cc3ccccc3)nn3c(C)nnc23)CC1 [III-1, 1-{4-[6-(Benzyl-methyl-amino)-3-methyl-[1,2,4]triazolo[4,3-b]pyridazin-8-ylamino]-piperidin-1-yl}-ethanone] | 61 nM
CCN1CCC(Nc2cc(N(C)Cc3ccccc3)nn3c(C)nnc23)CC1 [III-2, N6-Benzyl-N8-(1-ethyl-piperidin-4-yl)-3,N6-dimethyl-[1,2,4]triazolo[4,3-b]pyridazine-6,8-diamine] | 3 nM
COCCN1CCC(Nc2cc(N(C)Cc3ccccc3)nn3c(C)nnc23)CC1 [III-3, N6-Benzyl-N8-[1-(2-methoxy-ethyl)-piperidin-4-yl]-3,N6-dimethyl-[1,2,4]triazolo[4,3-b]pyridazine-6,8-diamine] | 3 nM
Cc1nnc2c(NC3CCN(C=O)CC3)cc(N(C)Cc3ccccc3)nn12 [III-4] | 40 nM
Cc1nnc2c(NC3CCN(S(=O)(=O)CCCN(C)C)CC3)cc(N(C)Cc3ccccc3)nn12 [III-5] | 37 nM
Cc1nnc2c(NC3CCN(S(=O)(=O)C4CCNC4)CC3)cc(N(C)Cc3ccccc3)nn12 (centres unmarked) [III-6] | 33 nM
Cc1nnc2c(NC3CCN(S(=O)(=O)C4CCNCC4)CC3)cc(N(C)Cc3ccccc3)nn12 [III-7] | 57 nM
Cc1nnc2c(NC3CCN(S(=O)(=O)CCN)CC3)cc(N(C)Cc3ccccc3)nn12 [III-8] | 32 nM
Cc1nnc2c(NC3CCN(S(=O)(=O)C4CCN(C)CC4)CC3)cc(N(C)Cc3ccccc3)nn12 [III-9] | 40 nM
Cc1nnc2c(NC3CCN(S(=O)(=O)C4CCN(C)C4)CC3)cc(N(C)Cc3ccccc3)nn12 (centres unmarked) [III-10] | 44 nM
Cc1nnc2c(NC3CCN(S(=O)(=O)CCN(C)C)CC3)cc(N(C)Cc3ccccc3)nn12 [III-11] | 39 nM
